The values below come from paper PMC6264549, “Synthesis and Biological Evaluation of 3-Substituted-indolin-2-one Derivatives Containing Chloropyrrole Moieties” (Molecules, 2011).

For one series, the system named is oral epithelial (KB). Description: MTT cell growth inhibition assay, KB. The series is classed as cell-based. Particulars: Homo sapiens, 48 h, KB cells, two days. As for the experimental part: (§1) The antitumor activities of 14a-r were evaluated in vitro on four tumor cell lines, including non-small cell lung cancer (A549), oral epithelial (KB), melanoma (K111) and large cell lung cancer cell lines (NCI-H460) by the MTT assay, and the results are summarized in Table 1.
(§2) Non-small cell lung cancer (A549), oral epithelial (KB), large cell lung cancer (NCI-H460) and melanoma cell lines (K111) were cultured in Dulbecco’s modified Eagle medium (GIBCO) containing 10% (v/v) inactivated newborn calf serum (Boren Bio-Pharmaceutical Co., Ltd.: Guangzhou, China), […] L-glutamine (SANGON), […] penicillin, 100 µg/mL streptomycin. Cells were grown in a 5% CO2 incubator at 37 °C.
(§3) The antitumor activities were determined by the MTT assay. Cells (2 × 10^3 cells/well) were seeded in 96-well plates. After incubation overnight, each compound, which was dissolved in dimethylsulfoxide (DMSO) and diluted with phosphate buffer solution (PBS), was added to each well and the cells were cultured for another two days at 37 °C. 20 μL (5 mg/mL) MTT solution was added to per well and the culture continued for another 3–4 h. The medium was removed and 100 μL DMSO was added to dissolve formazan crystals. Absorbance was measured at 492 nm using an ELISA reader (Thermo). The antitumor activities were expressed as IC50.

The next series relates to melanoma (K111). Kind of series: MTT cell growth inhibition assay, K111. The series is classed as cell-based. Particulars: 48 h, K111 cells, two days, read-out: IC50 ± SD K111. As for the experimental part:
as §1, §2, §3

In series [1] the test system is non-small cell lung cancer (A549). Kind of series: MTT cell growth inhibition assay, A549. The series is classed as cell-based. Particulars: Homo sapiens, 48 h, A549 cells, two days, read-out: IC50 ± SD A549. As for the experimental part:
as §1, §2, §3

A further series concerns the target hERG potassium currents (Homo sapiens, UniProt Q12809). Kind of series: Inhibition of hERG potassium currents in HEK239 cells (cardiotoxicity). (In general: Block of hERG is tested as a sign of cardiac risk.)
Another series deals with VEGFR2 tyrosine kinase (Homo sapiens, UniProt P35968). Kind of series: VEGFR2 inhibition assay (ELISA). The series is classed as biochemical. Particulars: 5.0 µM ATP, Poly (Glu, Tyr)4:1 substrate, read-out: IC50 ± SD VEGFR2. As for the experimental part: Seven compounds in the 14a–r series with low IC50 values on the tumor cell lines were evaluated for their inhibition of VEGFR2 using an enzyme-linked immunosorbent assay (ELISA), and the data are summarized in Table 2.
Sequence of VEGFR2 tyrosine kinase (P35968 20-1356): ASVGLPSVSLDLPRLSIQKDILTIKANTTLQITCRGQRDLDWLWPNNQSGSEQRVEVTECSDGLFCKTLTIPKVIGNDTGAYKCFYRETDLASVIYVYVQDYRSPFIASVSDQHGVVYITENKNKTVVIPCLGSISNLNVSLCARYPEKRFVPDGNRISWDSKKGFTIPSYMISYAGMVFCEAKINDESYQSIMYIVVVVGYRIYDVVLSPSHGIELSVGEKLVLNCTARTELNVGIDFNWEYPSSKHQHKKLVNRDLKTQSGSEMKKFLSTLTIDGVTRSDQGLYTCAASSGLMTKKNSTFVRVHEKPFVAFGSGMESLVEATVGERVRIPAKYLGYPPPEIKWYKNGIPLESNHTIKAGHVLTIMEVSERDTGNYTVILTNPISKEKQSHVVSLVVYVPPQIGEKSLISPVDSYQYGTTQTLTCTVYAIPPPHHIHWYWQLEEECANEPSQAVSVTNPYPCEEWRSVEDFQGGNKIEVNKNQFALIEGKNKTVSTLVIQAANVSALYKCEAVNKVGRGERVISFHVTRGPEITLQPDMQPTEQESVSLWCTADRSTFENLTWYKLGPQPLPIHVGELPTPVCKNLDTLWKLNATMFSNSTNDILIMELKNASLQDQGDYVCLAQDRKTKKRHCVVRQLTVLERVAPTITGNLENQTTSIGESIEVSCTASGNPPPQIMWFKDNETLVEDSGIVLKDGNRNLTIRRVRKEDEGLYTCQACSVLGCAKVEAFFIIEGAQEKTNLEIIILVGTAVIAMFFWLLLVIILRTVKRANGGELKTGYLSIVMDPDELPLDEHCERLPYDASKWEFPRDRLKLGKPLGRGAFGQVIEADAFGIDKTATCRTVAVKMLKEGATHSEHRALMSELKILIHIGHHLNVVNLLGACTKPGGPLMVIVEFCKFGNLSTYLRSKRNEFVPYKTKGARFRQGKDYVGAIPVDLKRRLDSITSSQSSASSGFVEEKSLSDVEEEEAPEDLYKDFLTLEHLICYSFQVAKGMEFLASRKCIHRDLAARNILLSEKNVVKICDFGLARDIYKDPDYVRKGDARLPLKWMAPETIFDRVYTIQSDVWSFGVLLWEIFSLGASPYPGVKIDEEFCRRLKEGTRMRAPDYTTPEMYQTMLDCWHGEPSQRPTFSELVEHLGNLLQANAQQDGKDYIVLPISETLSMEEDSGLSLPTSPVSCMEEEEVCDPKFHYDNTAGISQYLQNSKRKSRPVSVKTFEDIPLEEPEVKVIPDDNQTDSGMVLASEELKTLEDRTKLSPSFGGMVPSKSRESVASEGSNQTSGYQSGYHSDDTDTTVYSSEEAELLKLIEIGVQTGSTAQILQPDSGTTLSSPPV
The VEGFR2 inhibition assay was performed by enzyme-linked immunosorbent assay (ELISA) in 96-well plates pre-coated with 2.5 µg/well Poly (Glu, Tyr)4:1 as a substrate. Each well was treated with 90 µL of 5.0 µM ATP (Amresco) solution and 10 µL of one of the seven compounds at varying concentrations, which were diluted in reaction buffer (50 mM HEPES pH 7.4, 20 mM MgCl2, 0.1 mM Na3VO4, 1 mM DTT). […] The reaction was initiated by adding 1 µL/well of VEGFR2 tyrosine kinase. After incubation for 1 h at 37 °C, the plates were washed three times with phosphate buffered saline containing 0.1% Tween-20 (T-PBS). Next, anti-phosphotyrosine (PY99; 1:1,000 dilution, 100 μL/well) antibody was added. After 1 h incubation at room temperature, the plates were washed three times, and goat anti-mouse IgG horseradish peroxidase (100 μL/well of 1:2,000 dilution) diluted in T-PBS was added. The plates were reincubated at room temperature for 1 h, and washed as before. Finally, color development solution (0.03% H2O2 and 2 mg/mL o-phenylenediamine in 0.1 M citrate buffer, pH 5.5, 100 µL/well) was added and the plates were incubated at room temperature until color emerged. The reaction was terminated by the addition of 2 M H2SO4 (50 µL/well), and A492 was measured using a tunable wavelength microplate reader (Molecular Devices SPECTRAMAX190). The inhibition rate was calculated using the equation: [1 − (A492/A492 control)] × 100%.
(In general: ELISA stands for enzyme-linked immunosorbent assay.)

The subject of series [2] is large cell lung cancer cell lines (NCI-H460). Kind of series: MTT cell growth inhibition assay, NCI-H460. The series is classed as cell-based. Particulars: Homo sapiens, 48 h, NCI-H460 cells, two days, read-out: IC50 ± SD NCI-H460. As for the experimental part:
as §1, §2, §3

For series [3] the following is noted: sunitinib-treated patients, pivotal phase III metastatic renal cell carcinoma trial; cited from earlier work.

Structures are written as SMILES.

Sequence of hERG potassium currents (Q12809 whole entry): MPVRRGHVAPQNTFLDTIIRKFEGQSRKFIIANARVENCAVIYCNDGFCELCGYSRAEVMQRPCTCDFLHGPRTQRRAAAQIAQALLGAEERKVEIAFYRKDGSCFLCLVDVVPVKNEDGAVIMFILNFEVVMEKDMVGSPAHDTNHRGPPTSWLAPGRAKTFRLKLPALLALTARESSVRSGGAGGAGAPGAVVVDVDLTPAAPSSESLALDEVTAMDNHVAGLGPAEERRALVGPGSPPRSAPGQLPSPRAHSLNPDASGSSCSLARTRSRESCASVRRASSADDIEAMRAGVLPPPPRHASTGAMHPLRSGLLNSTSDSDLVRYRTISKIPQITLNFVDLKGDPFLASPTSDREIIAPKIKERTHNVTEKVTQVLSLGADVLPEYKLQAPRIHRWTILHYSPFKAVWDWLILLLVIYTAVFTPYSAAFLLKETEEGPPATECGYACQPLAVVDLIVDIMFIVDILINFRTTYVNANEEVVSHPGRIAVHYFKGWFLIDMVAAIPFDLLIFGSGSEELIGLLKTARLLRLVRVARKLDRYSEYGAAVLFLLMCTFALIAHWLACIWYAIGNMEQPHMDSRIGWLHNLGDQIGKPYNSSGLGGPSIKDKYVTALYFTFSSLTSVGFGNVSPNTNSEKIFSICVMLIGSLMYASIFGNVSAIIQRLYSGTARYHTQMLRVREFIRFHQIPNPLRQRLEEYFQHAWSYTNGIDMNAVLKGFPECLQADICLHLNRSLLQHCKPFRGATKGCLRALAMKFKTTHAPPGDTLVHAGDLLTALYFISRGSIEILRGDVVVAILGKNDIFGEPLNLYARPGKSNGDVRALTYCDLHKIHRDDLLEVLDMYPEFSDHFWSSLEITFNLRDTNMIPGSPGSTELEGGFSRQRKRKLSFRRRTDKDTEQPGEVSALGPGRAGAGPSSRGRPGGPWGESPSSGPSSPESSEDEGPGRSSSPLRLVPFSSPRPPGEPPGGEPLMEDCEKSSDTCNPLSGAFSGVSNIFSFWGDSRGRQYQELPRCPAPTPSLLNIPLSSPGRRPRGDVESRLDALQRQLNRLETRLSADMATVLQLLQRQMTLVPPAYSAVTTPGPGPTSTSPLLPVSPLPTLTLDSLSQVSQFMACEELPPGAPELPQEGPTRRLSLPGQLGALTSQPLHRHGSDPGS

For `CCN(CC)CCNC(=O)c1c(C)[nH]c(/C=C2\C(=O)Nc3ccc(F)cc32)c1Cl` [Compound 14h, (Z)-4-Chloro-N-(2-(diethylamino)ethyl)-5-((5-fluoro-2-oxoindolin-3-ylidene)methyl)-2-methyl-1H-pyrrole-3-carboxamide], the melting point was in the range of 245.6 to 246.9 °C. In addition, in the series on oral epithelial (KB), the 50% inhibitory concentration (IC50) was determined as 1.25 ± 0.1 µM. Further, the IC50 with melanoma (K111) came out at 1.79 ± 0.12 µM. Also, the IC50 in series [1] came out at 1.87 ± 0.26 µM. Further, the IC50 against hERG potassium currents was determined as 0.452 µM. Besides, at VEGFR2 tyrosine kinase, the IC50 turned out to be 0.0068 ± 0.0008 µM. Also, the IC50 in series [2] stood at 32.1 ± 3.83 µM.

Regarding `CCNCCNC(=O)c1c(C)[nH]c(/C=C2\C(=O)Nc3ccc(F)cc32)c1Cl` [Compound 14g, (Z)-4-Chloro-N-(2-(ethylamino)ethyl)-5-((5-fluoro-2-oxoindolin-3-ylidene)methyl)-2-methyl-1H-pyrrole-3-carboxamide], the melting point was 211 to 211.8 °C. In the series with oral epithelial (KB), this compound registered an IC50 of 0.67 ± 0.08 µM. Further, the IC50 in the series on melanoma (K111) was determined as 1.19 ± 0.21 µM. Further, in series [1], the IC50 is 1.03 ± 0.09 µM. Moreover, half-maximal inhibition on hERG potassium currents (IC50) required 0.43 µM. Besides, the IC50 on VEGFR2 tyrosine kinase is 0.005 ± 0.0011 µM. The IC50 in series [2] worked out at 1.41 ± 0.09 µM.

Regarding `CCN(CC)CCNC(=O)c1c(C)[nH]c(/C=C2\C(=O)Nc3ccc(F)cc32)c1C` [Sunitinib, sunitinib, reference compound], the IC50 in the series on oral epithelial (KB) worked out at 2.6 ± 0.18 µM; in the series with melanoma (K111), 3.83 ± 0.43 µM; in series [1] it was 2.93 ± 0.25 µM; in series [2], 4.79 ± 0.62 µM. The “patients who experienced a decline in LVEF to below normal” value in series [3] is recorded as 21%.

`CCNCCNC(=O)c1c(Cl)[nH]c(/C=C2\C(=O)Nc3ccc(F)cc32)c1CC` [Compound 14r, (Z)-2-Chloro-4-ethyl-N-(2-(ethylamino)ethyl)-5-((5-fluoro-2-oxoindolin-3-ylidene)methyl)-1H-pyrrole-3-carboxamide]: the melting point was 232 to 233.1 °C. Further, the half-maximal inhibitory concentration (IC50) in the series with oral epithelial (KB) came out at 1.43 ± 0.21 µM. The IC50 with melanoma (K111) worked out at 3.72 ± 0.46 µM. Moreover, the IC50 in series [1] amounted to 1.49 ± 0.11 µM. Also, the IC50 at VEGFR2 tyrosine kinase came to 0.0087 ± 0.0013 µM. The IC50 in series [2] is 1.22 ± 0.1 µM.

A word on the IC50: it is the concentration that inhibits the measured activity by half. For orientation: melting point means the temperature, or range, at which the solid turns liquid.
